Assay results from patent publication US8178506B2, “Oligomeric compounds and compositions for use in modulation of small non-coding RNAs” (Regulus Therapeutics Inc., priority 2003, dated 2012).
In the oligonucleotide strings, read from the 5' end, every base follows the letter of its sugar. An asterisk marks phosphorothioate; unmarked linkages are phosphodiester. Other units and linkages are bracketed, terminal groups are in braces. A string of capitals states the bases alone. e = 2'-O-(2-methoxyethyl) (MOE); [5mC] = 5-methylcytosine; d = 2'-deoxy (DNA)

Tested on: mir-15a pri-miRNA
Experiment: mir-15a pri-miRNA expression in HepG2 cells (real-time RT-PCR)
Format: cell-based, human
Conditions: for Expression of mir-15a pri-miRNA (% UTC): HepG2 cells, 100 nM, real-time RT-PCR; for expression of the mir-15a pri-miRNA molecule: HepG2, 100 nM
Method: Using the real-time RT-PCR methods described in Example 19, the expression levels of the mir-15a pri-miRNA were compared in HepG2 cells treated with a nested series of chimeric gapmer oligomeric compounds, targeting and spanning the entire length of the mir-15a pri-miRNA; these compounds are shown in Table 45, below. […] All cytidine residues are 5-methylcytidines. Using the transfection methods described herein, HepG2 cells were treated with 100 nM of each of these gapmer oligomeric compounds. Total RNA was isolated from HepG2 cells by lysing cells in 1 mL TRIZOL™ (Invitrogen) using the manufacturer's recommended protocols. Real-time RT-PCR analysis was performed using a primer/probe set specific for the mir-15a pri-miRNA molecule to assess the effects of these compounds on expression of the mir-15a pri-miRNA molecule. ISIS 339317 ([…]; SEQ ID NO.: 885) was used as the forward primer, ISIS 339318 (TGGCCTGCACCTTTTCAAA; SEQ ID NO.: 886) was used as the reverse primer, and ISIS 339319 ([…]; SEQ ID NO.: 887) was used as the probe. Total RNA was quantified using RiboGreen™ RNA quantification reagent (Molecular Probes, Inc. Eugene, Oreg.), expression levels observed for each target are normalized to 5.8S rRNA, and values are expressed relative to the untreated control. Inhibition of expression of the mir15a pri-miRNA by these gapmer oligomeric compounds is expressed as a percentage of RNA levels in untreated control cells.

Substance | Expression of mir-15a pri-miRNA (% UTC) | expression of the mir-15a pri-miRNA molecule
347964 (eT*eA*eT*eA*eA*d[5mC]*dA*dT*dT*dG*dA*dT*dG*dT*dA*eA*eT*eA*eT*eG; antisense) [compound 347964] | 13.7 % UTC | 
347965 (eG*e[5mC]*eT*eA*e[5mC]*dT*dT*dT*dA*d[5mC]*dT*d[5mC]*d[5mC]*dA*dA*eG*eG*eT*eT*eT; antisense) [compound 347965] | 86.0 % UTC | 
347966 (eT*eG*e[5mC]*eT*eA*d[5mC]*dT*dT*dT*dA*d[5mC]*dT*d[5mC]*d[5mC]*dA*eA*eG*eG*eT*eT; antisense) [compound 347966] | 39.2 % UTC | 
347967 (eG*e[5mC]*eA*e[5mC]*e[5mC]*dT*dT*dT*dT*d[5mC]*dA*dA*dA*dA*dT*e[5mC]*e[5mC]*eA*e[5mC]*eA) [compound 347967] | 152.3 % UTC | 
347968 (e[5mC]*e[5mC]*eT*eG*e[5mC]*dA*d[5mC]*d[5mC]*dT*dT*dT*dT*d[5mC]*dA*dA*eA*eA*eT*e[5mC]*e[5mC]; antisense) [compound 347968] | 8.4 % UTC | 
347969 (eT*eG*eG*e[5mC]*e[5mC]*dT*dG*d[5mC]*dA*d[5mC]*d[5mC]*dT*dT*dT*dT*e[5mC]*eA*eA*eA*eA; antisense) [compound 347969] | 39.5 % UTC | 
347970 (eA*eT*eA*eT*eG*dG*d[5mC]*d[5mC]*dT*dG*d[5mC]*dA*d[5mC]*d[5mC]*dT*eT*eT*eT*e[5mC]*eA; antisense) [compound 347970] | 2.2 % UTC | 
347971 (eA*e[5mC]*eA*eA*eT*dA*dT*dG*dG*d[5mC]*d[5mC]*dT*dG*d[5mC]*dA*e[5mC]*e[5mC]*eT*eT*eT; antisense) [compound 347971] | 92.8 % UTC | 
347972 (eA*eG*e[5mC]*eA*e[5mC]*dA*dA*dT*dA*dT*dG*dG*d[5mC]*d[5mC]*dT*eG*e[5mC]*eA*e[5mC]*e[5mC]; antisense) [compound 347972] | 98.6 % UTC | 
347973 (eG*eG*e[5mC]*eA*eG*d[5mC]*dA*d[5mC]*dA*dA*dT*dA*dT*dG*dG*e[5mC]*e[5mC]*eT*eG*e[5mC]) [compound 347973] | 143.3 % UTC | 
347974 (eT*eG*eA*eG*eG*d[5mC]*dA*dG*d[5mC]*dA*d[5mC]*dA*dA*dT*dA*eT*eG*eG*e[5mC]*e[5mC]; antisense) [compound 347974] | 98.1 % UTC | 
347975 (eT*eT*eT*eT*eG*dA*dG*dG*d[5mC]*dA*dG*d[5mC]*dA*d[5mC]*dA*eA*eT*eA*eT*eG; antisense) [compound 347975] | 9.2 % UTC | 
347976 (eT*eA*eT*eT*eT*dT*dT*dG*dA*dG*dG*d[5mC]*dA*dG*d[5mC]*eA*e[5mC]*eA*eA*eT; antisense) [compound 347976] | 73.0 % UTC | 
347977 (eT*eT*eG*eT*eA*dT*dT*dT*dT*dT*dG*dA*dG*dG*d[5mC]*eA*eG*e[5mC]*eA*e[5mC]) [compound 347977] | 111.3 % UTC | 
347978 (eT*e[5mC]*e[5mC]*eT*eT*dG*dT*dA*dT*dT*dT*dT*dT*dG*dA*eG*eG*e[5mC]*eA*eG; antisense) [compound 347978] | 51.1 % UTC | 
347979 (eA*eG*eA*eT*e[5mC]*d[5mC]*dT*dT*dG*dT*dA*dT*dT*dT*dT*eT*eG*eA*eG*eG; antisense) [compound 347979] | 74.9 % UTC | 
347980 (eA*eG*eA*eT*e[5mC]*dA*dG*dA*dT*d[5mC]*d[5mC]*dT*dT*dG*dT*eA*eT*eT*eT*eT; antisense) [compound 347980] | 3.6 % UTC | 
347982 (eT*eT*e[5mC]*eA*eG*dA*dA*dG*dA*dT*d[5mC]*dA*dG*dA*dT*e[5mC]*e[5mC]*eT*eT*eG; antisense) [compound 347982] | 82.2 % UTC | 
347983 (eA*eA*eA*eT*eA*dT*dA*dT*dT*dT*dT*d[5mC]*dT*dT*d[5mC]*eA*eG*eA*eA*eG; antisense) [compound 347983] | 13.0 % UTC | 
ISIS 347964: 5-10-5 2′-MOE gapmer PS; targets mir-15a pri-miRNA (antisense eT*eA*eT*eA*eA*d[5mC]*dA*dT*dT*dG*dA*dT*dG*dT*dA*eA*eT*eA*eT*eG) |  | significant inhibition of expression of the mir-15a pri-miRNA molecule
ISIS 347966: 5-10-5 2′-MOE gapmer PS; targets mir-15a pri-miRNA (antisense eT*eG*e[5mC]*eT*eA*d[5mC]*dT*dT*dT*dA*d[5mC]*dT*d[5mC]*d[5mC]*dA*eA*eG*eG*eT*eT) |  | significant inhibition of expression of the mir-15a pri-miRNA molecule
ISIS 347967: 5-10-5 2′-MOE gapmer PS; targets mir-15a pri-miRNA (antisense eG*e[5mC]*eA*e[5mC]*e[5mC]*dT*dT*dT*dT*d[5mC]*dA*dA*dA*dA*dT*e[5mC]*e[5mC]*eA*e[5mC]*eA) |  | stimulate an increase in expression levels of the mir-15a pri-miRNA
ISIS 347968: 5-10-5 2′-MOE gapmer PS; targets mir-15a pri-miRNA (antisense e[5mC]*e[5mC]*eT*eG*e[5mC]*dA*d[5mC]*d[5mC]*dT*dT*dT*dT*d[5mC]*dA*dA*eA*eA*eT*e[5mC]*e[5mC]) |  | significant inhibition of expression of the mir-15a pri-miRNA molecule
ISIS 347970: 5-10-5 2′-MOE gapmer PS; targets mir-15a pri-miRNA (antisense eA*eT*eA*eT*eG*dG*d[5mC]*d[5mC]*dT*dG*d[5mC]*dA*d[5mC]*d[5mC]*dT*eT*eT*eT*e[5mC]*eA) |  | significant inhibition of expression of the mir-15a pri-miRNA molecule
ISIS 347973: 5-10-5 2′-MOE gapmer PS; targets mir-15a pri-miRNA (antisense eG*eG*e[5mC]*eA*eG*d[5mC]*dA*d[5mC]*dA*dA*dT*dA*dT*dG*dG*e[5mC]*e[5mC]*eT*eG*e[5mC]) |  | stimulate an increase in expression levels of the mir-15a pri-miRNA
ISIS 347975: 5-10-5 2′-MOE gapmer PS; targets mir-15a pri-miRNA (antisense eT*eT*eT*eT*eG*dA*dG*dG*d[5mC]*dA*dG*d[5mC]*dA*d[5mC]*dA*eA*eT*eA*eT*eG) |  | significant inhibition of expression of the mir-15a pri-miRNA molecule
ISIS 347977: 5-10-5 2′-MOE gapmer PS; targets mir-15a pri-miRNA (antisense eT*eT*eG*eT*eA*dT*dT*dT*dT*dT*dG*dA*dG*dG*d[5mC]*eA*eG*e[5mC]*eA*e[5mC]) |  | stimulate an increase in expression levels of the mir-15a pri-miRNA
ISIS 347980: 5-10-5 2′-MOE gapmer PS; targets mir-15a pri-miRNA (antisense eA*eG*eA*eT*e[5mC]*dA*dG*dA*dT*d[5mC]*d[5mC]*dT*dT*dG*dT*eA*eT*eT*eT*eT) |  | significant inhibition of expression of the mir-15a pri-miRNA molecule
ISIS 347983: 5-10-5 2′-MOE gapmer PS; targets mir-15a pri-miRNA (antisense eA*eA*eA*eT*eA*dT*dA*dT*dT*dT*dT*d[5mC]*dT*dT*d[5mC]*eA*eG*eA*eA*eG) |  | significant inhibition of expression of the mir-15a pri-miRNA molecule
